In patent US20250296961A1, “ANTIMICROBIAL PEPTIDES FOR REMINERALIZATION OF TEETH AND PREVENTION OF DENTAL CARIES” (The University of Hong Kong, priority 2021, published 2025):

What was measured:
[1] = Adsorption time assay on tooth enamel (Micro BCA); type: binding, human; settings: 10 nmol/mL peptide, 37° C.
Experimental: (§1) 3×3×1.5 mm^3 (number: 197) tooth slices were prepared using a water-cooled diamond saw (IsoMet low-speed saw, Buehler, Lake Bluff, IL, USA). One working surface of complete enamel tissue from each tooth slice was generated using the MicroCT Skyscan 1172 (Bruker MicroCT, Kontich, Belgium). The enamel working side of the tooth slice was polished and other sides marked with acid-proof nail polish. All tooth slices were cleaned and stored in deionized water at 4° C.
Adsorption Time Assay The adsorption time of peptides to the tooth enamel was also tested using the Micro BCA method. Solutions of P-113, P-113-DPS, P-113-DA, and P-113-SK in 10 mM HEPES buffer (pH 7) were diluted to 10 nmol/mL. Enamel working surfaces of tooth slices (N=20) were exposed to P-113 solution (n=5), P-113-DPS solution (n=5), P-113-DA solution (n=5), and P-113-SK solution (n=5), respectively. The remaining extraneous surfaces were covered with wax. Tubes were placed into a rotator at 37° C. […] After a 30-min incubation, absorbance was measured. A function of C=a*A+b was determined (a and b are constants). The concentrations of the peptide solution at different time points (C0, C1, C2, C3, C4, and C5 at 0, 5, 20, 40, 60, and 120 min, respectively) were computed based on absorbances […].

[2] = Remineralization assay of peptide-coated enamel (Example 1); parameters: species or system human; settings: 8 μmol/mL coating, remineralization solution 24 h, FE-SEM
Experimental: as §1
The enamel working surface of tooth slices (N=30) was acid-etched in 37% phosphoric acid for 1 min and rinsed with deionized water for 1 min. The slices were immersed in 8 μmol/mL P-113, P-113-DPS, P-113-DA, P-113-SK, Sp-H5 (n=5 for each) solutions (in 10 mM HEPES) or HEPES (control) overnight. All tooth slices were incubated in 7 mL remineralization solution (2.58 mM CaCl2)·2H2O, 1.55 mM KH2PO4, 10 mg/L NaF, 180 mM NaCl, 50 mM Tris-HCl, pH 7.6) for 24 h. The enamel surface and cross-section morphology were analyzed by FE-SEM (Hitachi, S4800). Ca/P concentrations in the solutions before and after immersion were calculated by ICP-OES. The mean values for Ca/P gain were analyzed using ANOVA at the 1‰ significance level.

[3] = test system: S. mutans; assay: Anti-planktonic bacterial ability, MBC (Example 2); type: cell-based, S. mutans (ATCC 35668)
Experimental: (§2) S. mutans (ATCC 35668, ATCC, Manassas, USA), S. gordonii (ATCC 35105, ATCC, Manassas, USA), and S. sanguinis (ATCC 10556, ATCC, Manassas, USA) strains were cultured in brain-heart infusion broth (BHI, Difco Laboratories, Detroit, USA) at 37° C. under anaerobic conditions (85% N2, 10% H2, and 5% CO2). Bacteria were harvested by centrifugation (5000 rpm, 10 min), washed once with sodium phosphate-buffered saline (PBS, 10 mM, pH=7.2), and resuspended in BHI at a concentration of 1×10^6 CFU mL^−1.
(§3) Each well was seeded with 10 μL S. mutans suspension, S. gordonii suspension, and S. sanguinis suspension, respectively. […] The bacterial growth was assessed by measuring the absorbance at 595 nm using a microplate reader after a 24-hour incubation. Subsequently, 10 μL of bacterial suspension from each well were plated on horse blood agar plates and incubated at 37° C. for 48 h. The antibacterial activities of AMPs were evaluated.

[4] = test system: S. gordonii; assay: Anti-planktonic bacterial ability, MBC (Example 2); type: cell-based, S. gordonii (ATCC 35105)
Experimental: as §2, §3

[5] = test system: S. sanguinis; assay: Anti-planktonic bacterial ability, MBC (Example 2); type: cell-based, S. sanguinis (ATCC 10556)
Experimental: as §2, §3

For “AKRHHGYKRKFH [Peptide P-113, non-specific AMP, portion of human histatin 5]”, the “Adsorption time on enamel (majority of adsorption / significant decrease in concentration)” value [1] was 60 min, the “Thickness of the regenerated crystal layer on the enamel surface” value [2] was 6 μm and the “MBC, S. mutans” value [3] was greater than 128 μM mL^−1. For the same sequence, the “MBC, S. gordonii” value [4] was greater than 128 μM mL^−1 and the “MBC, S. sanguinis” value [5] was greater than 128 μM mL^−1.
